Where two headings read alike, the source gives them in different places.
Key:
[1] = test system: bladder detrusor smooth muscle; experiment: first in vitro test: relaxation of guinea pig bladder detrusor strips contracted with 15 mM KCl; assay type: cell-based, Male albino Hartley guinea pigs; conditions: for relaxation and reduction of the myogenic activity of guinea pig detrusor strips: first test, calcium channel blockers; for IC50: Cavia porcellus
Protocol: Male albino Hartley guinea pigs (450-500 g) are sacrificed by carbon dioxide induced asphyxiation and quickly exsanguinated. The lower abdominal cavity is opened and the urinary bladder isolated. […] The solution is warmed to 37° C. and gassed with 95% O2 and 5% CO2. With vigorous bubbling, the solution should have a pH value close to 7.4.
The dome of the washed bladder is cut off and discarded; the remaining bladder is placed on a gauze in a Petri dish containing the buffer solution. A mid-ventral longitudinal cut is made with scissors to open the bladder. The strips cut from the dome and the base edge are discarded. The remaining detrusor mid-section is cut into two horizontal strips with an approximate width of 2.0 mm. These two strips are further bisected at the mid-dorsal section, creating four strip of similar dimensions. Each strip thus contains both dorsal and ventral portions of the bladder.
The two ends of each individual strip are tied to a glass support rod and a force-displacement transducer (Grass model FR03), respectively, with 4-0 black braided silk suture.
The transducers are connected to a polygraph (Grass model 7E), which is calibrated at 5 mV/cm and the calibration checked for linearity with weights of 5 and 0.5 grams. The analog electrical output signals from the polygraph are digitized by a Modular Instrument Micro 5000 signal processing system using Biowindow Data Acquisition Software, which is run under the Microsoft OS/2 operating system with an IBM-compatible PC.
The detrusor strips on the glass rod are secured in 20 ml tissue baths and allowed to equilibrate under a preload tension of 2 grams. During the following 45 to 60 min equilibration period, the tissue is washed with fresh buffer solution at 15 min interval, with the tension adjusted, if necessary, to 2 grams prior to washing. After the equilibration period, a priming dose of 15 mM KCl (total concentration in the bath) is applied. The tissue is washed after 10 min and washed twice more at 15 min intervals with tension adjusted to 2 grams before each washing.
When the tissue relaxes to a steady state after the final washing, 15 mM KCl is again applied. Once the myogenic activity of the tissue reaches a steady state, the baseline data are acquired through the Biowindows Data Acquisition System by averaging 5 min of the myogenic data sampled at 32 Hz. Once the baseline is acquired, the experimental compounds are dosed in a cumulative manner in half log unit increments. The contact time for each dose is 10 min with the final 5 min being the period of time that the dose reponse data are required. […] The effect of the compound at each dose is expressed as % of the maximum inhibitory response, which is further normalized with respect to the corresponding effect of the compound vehicle control. The normalized response is then used to derive the IC50 of the relaxant activity of the compound through the application of Marquardt' s nonlinear iterative curve fitting technique to a standard dose-response function.

detrusor smooth muscle = experiment: second in vitro test: relaxation of guinea pig detrusor strips contracted with 80 mM KCl; assay type: cell-based; conditions: for potency in the second test relative to the first test: 80 mM KCl vs 15 mM KCl; for relaxation and reduction of the myogenic activity of guinea pig detrusor strips: second test, calcium channel blockers
Protocol: This second in vitro test is similar to the one described above with regard to tissue preparation and data acquisition. However, the following exceptions are noted. In this second test, the contraction of the detrusor strips during priming and after the equilibration period is achieved with 80 mM instead of 15 mM KCl (total concentration in the bath).

[2] = ability to relax bladder smooth muscle, comparison with non-fluorinated analogs, read-out: IC50

Row | SMILES | IC50 [1, 2] [nM] | relaxation and reduction of the myogenic activity of guinea pig detrusor strips (detrusor smooth muscle; 80 mM KCl) | further results
1 | COCCOC(=O)C1=C(C)NC(C)=C(C(=O)OC(C)C)C1c1cccc([N+](=O)[O-])c1 (stereo not drawn) [nimodipine] |  | able to relax and reduce the myogenic activity | relaxation and reduction of the myogenic activity of guinea pig detrusor strips [1]: able to relax and reduce the myogenic activity; potency in the second test relative to the first test (detrusor smooth muscle): more potent in the second test
2 | O=[N+]([O-])c1ccc2c(c1)N(c1cccc[n+]1[O-])CC(C(F)F)(C(F)F)O2 [Example 8, 2-(2,2-bis(Difluoromethyl)-6-nitro-3,4-dihydro-2H-1,4-benzoxazine-4-yl)pyridine-N-oxide] | 7 |  | 
3 | COc1ccc(CCN(C)CCCC(C#N)(c2ccc(OC)c(OC)c2)C(C)C)cc1OC (stereo not drawn) [verapamil] |  | able to relax and reduce the myogenic activity | relaxation and reduction of the myogenic activity of guinea pig detrusor strips [1]: able to relax and reduce the myogenic activity; potency in the second test relative to the first test (detrusor smooth muscle): more potent in the second test
4 | COc1ccc(Cc2nccc3cc(OC)c(OC)cc23)cc1OC [papaverine] |  |  | abolition of the KCl-induced tension (detrusor smooth muscle; 80 mM KCl, 300 μM, maximum response): totally abolished
5 | COC(=O)C1=C(C)NC(C)=C(C(=O)OC)C1c1ccccc1[N+](=O)[O-] [nifedipine] |  | able to relax and reduce the myogenic activity | 
6 | COC(=O)C1=C(C)NC(C)=C(C(=O)OC(C)C)C1c1cccc2nonc12 (stereo not drawn) [isradipine] |  | able to relax and reduce the myogenic activity | relaxation and reduction of the myogenic activity of guinea pig detrusor strips [1]: able to relax and reduce the myogenic activity; potency in the second test relative to the first test (detrusor smooth muscle): more potent in the second test
7 | CC1(C)Oc2ccc(C#N)cc2C(N2CCCC2=O)C1O (stereo not drawn) [cromakalim] |  |  | IC50 ([1]; putative potassium channel opener, read-out: relaxant activity IC50 in the first test): 600 to 900 nM; relaxant activity in the second test (detrusor smooth muscle; 80 mM KCl, at concentrations as high as 30 μM): insignificant relaxant activity
8 | CC1(C)CN(c2cccc[n+]2[O-])c2cc([N+](=O)[O-])ccc2O1 [@] | 74 |  | 

More lines, main results first:

Row | IC50 [1, 2] [nM] | SMILES | relaxation and reduction of the myogenic activity of guinea pig detrusor strips (detrusor smooth muscle; 80 mM KCl) | further results
9 | 540 | CC1(C(F)(F)F)CN(c2cccc[n+]2[O-])c2cc(S(=O)(=O)c3ccccc3)ccc2O1 (stereo not drawn) [Example 1, 2-(2-Methyl-2-trifluoromethyl-6-phenylsulfonyl-3,4-dihydro-2H-1,4-benzoxazin-4-yl)pyridine-N-oxide] |  | IC50 ([1]; guinea pig detrusor strips, read-out: IC50 (50% decrease in the in vitro contraction of the bladder tissue)): 540 nM
10 | 4100 | CC1(C)CN(c2cccc[n+]2[O-])c2cc(S(=O)(=O)c3ccccc3)ccc2O1 [*] |  | 
11 | 360 | O=S(=O)(c1ccccc1)c1ccc2c(c1)N(c1cccc[n+]1[O-])CC(C(F)F)(C(F)F)O2 [Example 6, 2-(2,2-bis(Difluoromethyl)-6-phenylsulfonyl-3,4-dihydro-2H-1,4-benzoxazine-4-yl)pyridine-N-oxide] |  | 
12 | 25 | O=[N+]([O-])c1ccc2c(c1)N(c1cccc[n+]1[O-])CC(CF)(CF)O2 [Example 4, 2-(2,2-(bis)Fluoromethyl-6-nitro-3,4-dihydro-2-H-1,4-benzoxazine-4-yl)pyridine-N-oxide] |  | 
13 | 2250 | O=S(=O)(c1ccccc1)c1ccc2c(c1)N(c1cccc[n+]1[O-])CC(CF)(CF)O2 [Example 5, 2-(2,2-(bis)Fluoromethyl-6-phenylsulfonyl-3,4-dihydro-2H-1,4-benzoxazine-4-yl)pyridine-N-oxide] |  | 
